The test system of assay [1] is Rb phosphorylated on serine 780 in CCNE1 amplified COV318 cells. Briefly: CDK2 pRb (S780) HTRF cellular assay. Type of assay: cell-based, human. The following applies: for IC50: Homo sapiens, FIG. 10B, read-out: IC50 in p-RB S780 HTRF cellular assay. Here is the method: CDK2 pRb ([…]) HTRF cellular assay enables the quantitative detection of Rb phosphorylated on […] in CCNE1 amplified COV318 cells. The assay comprised two antibodies: Europium cryptate labeled anti-Phospho-Rb […] antibody (donor) and d2 labeled anti-Rb antibody (acceptor). In brief, COV318 cells were seeded into the wells of 96-well plate at a density of 25,000 per well with 9-point, 3-fold serial diluted compounds and cultured overnight at 37 degree with 5% CO2. The final concentrations of compounds start from 3 μM. The next day cells were lysed in 70 μL 1× Phospho-total protein lysis buffer #2 (Cisbio), supplemented with 0.7 μL blocking buffer (Cisbio) and 1.4 μL protease inhibitor cocktail set III, EDTA-free (Calbiochem, 539134). 16 μL of cell lysates were mixed with 4 μL of the fluorophore-conjugated antibodies to a final concentration of 0.188 nM cryptate-labeled anti-Phospho-Rb […] antibody and 0.14 nM d2 labeled anti-Rb antibody. After 2 h of incubation at room temperature, HTRF signals were measured on the PHERAstar microplate reader (BMG Labtech), using 340 nm as excitation wavelength, a 620 nm filter for the Europium donor fluorescence, and a 665-nm filter for the acceptor fluorescence detection. HTRF signals were calculated as the HTRF ratio (ratio of fluorescence measured at 665 nm and 620 nm)×10000.
In general terms: TR-FRET usually uses a lanthanide donor and a delayed reading to cut background.

For assay [2], the system named is CCNE1-amplified cell lines (COV318, OVCAR3, Fu-OV1, KLE, MKN1, AGS, NCI-N87). Kind of assay: Cell cycle analysis by FACS in CCNE1-amplified cell lines. Type of assay: cell-based, human. The following applies: 100 nM, 16 hours, vs DMSO. Here is the method: The effect of CDK2-knockdown in CCNE1-amplified versus CCNE1-non-amplified cell lines was evaluated. CCNE1-amplified cell lines (Fu-OV1 and KLE) or CCNE1-non-amplified cell lines (COV504 and Igrov1) were treated with a control (“ctrl”) or CDK2-specific small interfering RNAs (“siRNAs”) (“CDK2 siRNA-1” and “CDK2 siRNA-2”) (FIGS. 2A and 2B and 3A and 3B). Seventy-two hours after transfection with the siRNAs, the cells were harvested and subjected to cell cycle analysis by fluorescence activated cell sorting (“FACS”) (FIGS. 2A and 3A). Knockdown of CDK2 was confirmed by western blot (FIGS. 2B and 3B).
The effect of CDK4/6-inhibition in CCNE1-amplified versus CCNE1-non-amplified cell lines was evaluated.
A similar experiment was performed in a larger set of CCNE1-amplified cell lines (COV318 and OVCAR3) and CCNE1-non-amplified cell lines (COV504, OV56, and Igrov1) (FIG. 6).
Next, the impact of CDK2-knockdown in these cells was evaluated. Mkn1, Ags, and NCI-N87 cells were treated with control or CDK2-specific siRNA. Three days-post-siRNA transfection, cell cycle phase distribution of the cells was evaluated by FACS. […]
Bulk DNA was stained with DAPI. Compound-treated and DMSO treated control cells were acquired with CytoFlex (Beckman Coulter) and were analyzed using the Flow Jo software. […]
In general terms: Flow cytometry measures light scatter and fluorescence of single cells or particles in a stream.

Another assay concerns the target T1, CDK2/Cyclin E1 (Homo sapiens, UniProt P24941).
T1 construct: utilize full-length human CDK2 co-expressed as N-terminal GST-tagged protein; GST (N); purchased Carna 04-165; host or cells: baculovirus expression system
Kind of assay: CDK2/Cyclin E1 HTRF enzyme activity assay (Example A). The following applies: 1 mM ATP. It counts as biochemical. Here is the method:
CDK2/Cyclin E1 enzyme activity assays utilize full-length human CDK2 co-expressed as N-terminal GST-tagged protein with FLAG-Cyclin E1 in a baculovirus expression system (Carna Product Number 04-165). Assays are conducted in white 384-well polystyrene plates in a final reaction volume of 8 μL. CDK2/Cyclin E1 (0.25 nM) is incubated with compounds (40 nL serially diluted in DMSO) in the presence of ATP (50 μM or 1 mM) and 50 nM ULight™-labeled eIF4E-binding protein 1 (THR37/46) peptide (PerkinElmer) in assay buffer (containing 50 mM HEPES pH 7.5, 1 mM EGTA, 10 mM MgC2, 2 mM DTT, 0.05 mg/mL BSA, and 0.01% Tween 20) for 60 minutes at room temperature. The reactions are stopped by the addition of EDTA and Europium-labeled anti-phospho-4E-BP1 antibody (PerkinElmer), for a final concentration of 15 mM and 1.5 nM, respectively. HTRF signals are read after 1 hour at room temperature on a PHERAstar FS plate reader (BMG Labtech). Data is analyzed with IDBS XLFit and GraphPad Prism 5.0 software using a three or four parameter dose response curve to determine IC50 for each compound.

This is an account of results in US20200316064A1, “CYCLIN-DEPENDENT KINASE 2 BIOMARKERS AND USES THEREOF” (Incyte Corporation, priority 2019, published 2020).

The structures appear in SMILES notation.

On to `CC(=O)c1c(C)c2cnc(Nc3ccc(N4CCNCC4)cn3)nc2n(C2CCCC2)c1=O` [palbociclib], for which the concentration for half-maximal inhibition (IC50) in assay [1] is > 3 µM. Turning to `C[C@@]1(O)CCC[C@H]1n1c(=O)ccc2cnc(NC3CCN(S(C)(=O)=O)CC3)nc21` [Compound A, 8-((1R,2R)-2-hydroxy-2-methylcyclopentyl)-2-((1-(methylsulfonyl)piperidin-4-yl)amino)pyrido[2,3-d]pyrimidin-7(8H)-one], in assay [1], the “Rb phosphorylation on serine 780” value was “inhibited Rb phosphorylation on serine 780”. The IC50 in assay [1] came out at 0.037 µM. Moreover, the “percentage of S phase cells” value in assay [2] (COV318, control siRNA-treated) is given as “significantly decreased”; in assay [2] (COV318, p16 knocked down by siRNA) it was “not significantly decreased”. For `CC1CCCC1N1C(=O)C2(CC2)c2cnc(NC3CCN(S(C)(=O)=O)CC3)nc21` (mixture of isomers) [Example B8, 7′-(2-methylcyclopentyl)-2′-((1-(methylsulfonyl)piperidin-4-yl)amino)spiro[cyclopropane-1,5′-pyrrolo[2,3-d]pyrimidin]-6′(7′H)-one], on CDK2/Cyclin E1, the half-inhibitory concentration (IC50) is ≤ 0.05 µM. Take `CC1(C)Cc2cnc(NC3CCN(S(C)(=O)=O)CC3)nc2N(C2CCCC2)C1=O` [Example A2, 8-cyclopentyl-6,6-dimethyl-2-((1-(methylsulfonyl)piperidin-4-yl)amino)-5,8-dihydropyrido[2,3-d]pyrimidin-7(6H)-one]: on CDK2/Cyclin E1, the 50% inhibitory concentration (IC50) was ≤ 0.05 µM. Same read-out and setting: the same measure for `Cc1ccccc1N1C(=O)C2(CC2)c2cnc(NC3CCN(S(C)(=O)=O)CC3)nc21` [Example B9, 2′-((1-(methylsulfonyl)piperidin-4-yl)amino)-7′-(o-tolyl)spiro[cyclopropane-1,5′-pyrrolo[2,3-d]pyrimidin]-6′(7′H)-one]: 0.1 to 0.5 µM; for `C[C@@]1(O)CCC[C@H]1N1C(=O)C2(CC2)c2cnc(NC3CCN(S(=O)(=O)c4ncc[nH]4)CC3)nc21` (relative stereo) [Example B17, 2′-((1-((1H-imidazol-2-yl)sulfonyl)piperidin-4-yl)amino)-7′-((trans)-2-hydroxy-2-methylcyclopentyl)spiro[cyclopropane-1,5′-pyrrolo[2,3-d]pyrimidin]-6′(7′H)-one]: ≤ 0.05 µM; for `O=C1N(C2CCCC2)c2nc(NC3CCN(S(=O)(=O)C4CCOCC4)CC3)ncc2C12CC2` [Example B4, 7′-cyclopentyl-2′-((1-((tetrahydro-2H-pyran-4-yl)sulfonyl)piperidin-4-yl)amino)spiro[cyclopropane-1,5′-pyrrolo[2,3-d]pyrimidin]-6′(7′H)-one]: 0.1 to 0.5 µM.

In general, IC50 refers to the concentration needed to halve the response being measured.
